Columns and labels:
6-Hz acute seizure model = system: 6-Hz acute seizure model; design: method as in Anderson et al., 2021b; conditions: monotherapy; ref Anderson et al., 2021b; cited from earlier work
[1] = molecular target: T1, human NaV1.1 channel (SCN1A, HEK293T cells) (Homo sapiens, UniProt P35498); assay: Planar patch-clamp, inhibition of peak sodium current (IC50 protocol); format: cell-based; conditions: mean ± SEM
T1 construct: expressed in transfected cells
Procedure: (§1) HEK293T cells stably expressing SCN1A or SCN2A and CHO cells stably expressing SCN8A or SCN9A were maintained as previously described ([Richards et al., 2018]; [Milligan et al., 2022]).
(§2) Patch-clamp recordings were made using a Patchliner® (Nanion Technologies, Munich, Germany) in the whole-cell configuration as previously described ([Richards et al., 2018]; [Milligan et al., 2022]). Briefly, cells were prepared in suspension at a density of 1 × 10^6-5 × 10^7 cells/mL. The external recording solution comprised (in mM): 140 NaCl, 4 KCl, 1 MgCl2, 2 CaCl2, 5 D-glucose, 10 HEPES, pH 7.4 with NaOH, ∼295 mOsm. The internal recording solution comprised (in mM): 50 CsCl, 60 CsF, 10 NaCl, 20 EGTA, 10 HEPES, pH 7.2 with CsOH, ∼285 mOsm. Medium single-hole planar NPC-16 chips with an average resistance of ∼2.5 MΩ were used. Chip and whole-cell capacitance were fully compensated, and 50% series resistance compensation applied. Recordings were acquired at 50 kHz with the low pass filter set to 10 kHz in PATCHMASTER (HEKA Instruments, NY, United States) and performed at 27°C. Offline analysis was performed using Microsoft Excel, MatLab R2019a (MathWorks) and GraphPad Prism 8 (Molecular Devices).
(§3) To determine half-maximal inhibitory concentrations (IC50), cells were held at −80 mV, stepped to −120 mV for 200 ms followed by 50 ms test depolarization to 0 mV every 2 s for 30 s in the presence of vehicle control (DMSO). The cells were then exposed to an individual phytocannabinoid (CBD, CBGA, CBDVA, CBG, CBCA or CBC) at concentrations between 0.1 and 100 μM, sequentially for 5 min. Currents for individual cells were averaged over 24 s periods directly before application and following a 5 min exposure of compound. Leak subtraction was applied before normalization of current amplitude. Normalized mean data were fit to the Hill equation.

[2] = molecular target: T2, human NaV1.6 channel (SCN8A, CHO cells) (Homo sapiens, UniProt Q9UQD0); assay: as above; format: cell-based; conditions: mean ± SEM
T2 construct: expressed in transfected cells
T2 sequence (Q9UQD0 whole entry): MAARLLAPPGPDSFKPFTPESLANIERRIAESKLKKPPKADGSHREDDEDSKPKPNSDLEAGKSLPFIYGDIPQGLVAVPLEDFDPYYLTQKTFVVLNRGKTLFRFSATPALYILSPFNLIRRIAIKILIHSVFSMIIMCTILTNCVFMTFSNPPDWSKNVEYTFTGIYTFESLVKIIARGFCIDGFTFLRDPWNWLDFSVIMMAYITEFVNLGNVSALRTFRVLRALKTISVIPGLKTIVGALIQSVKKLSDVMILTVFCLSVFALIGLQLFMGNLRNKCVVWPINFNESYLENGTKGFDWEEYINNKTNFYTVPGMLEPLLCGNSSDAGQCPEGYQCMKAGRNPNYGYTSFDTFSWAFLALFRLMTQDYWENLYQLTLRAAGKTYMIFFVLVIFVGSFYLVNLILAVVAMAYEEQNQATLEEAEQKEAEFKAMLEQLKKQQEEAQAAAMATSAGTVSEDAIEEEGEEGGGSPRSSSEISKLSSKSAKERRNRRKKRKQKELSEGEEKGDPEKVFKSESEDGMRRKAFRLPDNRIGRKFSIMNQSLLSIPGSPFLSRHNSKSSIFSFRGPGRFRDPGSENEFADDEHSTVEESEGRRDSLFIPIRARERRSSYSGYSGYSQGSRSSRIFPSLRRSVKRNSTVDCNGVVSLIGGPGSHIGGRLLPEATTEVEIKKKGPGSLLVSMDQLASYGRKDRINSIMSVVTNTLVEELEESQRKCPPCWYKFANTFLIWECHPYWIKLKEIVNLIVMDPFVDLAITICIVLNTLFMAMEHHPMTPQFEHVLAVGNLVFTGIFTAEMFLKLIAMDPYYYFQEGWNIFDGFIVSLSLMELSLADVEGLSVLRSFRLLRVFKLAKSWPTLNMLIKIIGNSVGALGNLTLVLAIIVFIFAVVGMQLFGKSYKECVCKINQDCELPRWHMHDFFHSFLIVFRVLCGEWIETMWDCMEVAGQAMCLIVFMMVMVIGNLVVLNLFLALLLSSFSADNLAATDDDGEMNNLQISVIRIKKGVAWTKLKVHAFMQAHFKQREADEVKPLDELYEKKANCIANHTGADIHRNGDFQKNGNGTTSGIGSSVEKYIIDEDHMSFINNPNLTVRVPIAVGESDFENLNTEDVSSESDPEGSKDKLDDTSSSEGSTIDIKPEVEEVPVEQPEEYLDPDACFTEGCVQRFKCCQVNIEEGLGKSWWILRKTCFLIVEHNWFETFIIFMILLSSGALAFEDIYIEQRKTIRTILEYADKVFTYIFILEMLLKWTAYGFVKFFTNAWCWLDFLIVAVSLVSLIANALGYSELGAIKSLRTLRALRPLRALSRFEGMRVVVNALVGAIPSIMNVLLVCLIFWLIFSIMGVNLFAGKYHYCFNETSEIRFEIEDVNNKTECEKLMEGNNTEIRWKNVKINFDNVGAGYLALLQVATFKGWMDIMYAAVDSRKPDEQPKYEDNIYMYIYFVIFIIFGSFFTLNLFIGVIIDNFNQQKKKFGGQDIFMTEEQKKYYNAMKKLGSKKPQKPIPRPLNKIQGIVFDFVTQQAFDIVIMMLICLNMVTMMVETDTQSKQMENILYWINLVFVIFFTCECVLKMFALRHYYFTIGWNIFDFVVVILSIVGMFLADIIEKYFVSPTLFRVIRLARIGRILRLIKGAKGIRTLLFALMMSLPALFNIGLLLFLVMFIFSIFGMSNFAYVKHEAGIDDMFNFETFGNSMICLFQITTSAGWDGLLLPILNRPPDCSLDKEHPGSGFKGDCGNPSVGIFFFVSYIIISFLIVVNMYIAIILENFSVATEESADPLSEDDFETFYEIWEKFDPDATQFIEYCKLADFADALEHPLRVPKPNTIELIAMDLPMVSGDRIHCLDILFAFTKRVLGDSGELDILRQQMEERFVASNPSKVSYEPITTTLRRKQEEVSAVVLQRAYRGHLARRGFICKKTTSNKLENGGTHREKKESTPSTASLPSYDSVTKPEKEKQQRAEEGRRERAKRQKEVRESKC
Procedure: as §1, §2, §3

[3] = molecular target: T3, human NaV1.7 channel (SCN9A, CHO cells) (Homo sapiens, UniProt Q15858); assay: as above; format: cell-based; conditions: mean ± SEM
T3 construct: expressed in transfected cells
T3 sequence (Q15858 whole entry): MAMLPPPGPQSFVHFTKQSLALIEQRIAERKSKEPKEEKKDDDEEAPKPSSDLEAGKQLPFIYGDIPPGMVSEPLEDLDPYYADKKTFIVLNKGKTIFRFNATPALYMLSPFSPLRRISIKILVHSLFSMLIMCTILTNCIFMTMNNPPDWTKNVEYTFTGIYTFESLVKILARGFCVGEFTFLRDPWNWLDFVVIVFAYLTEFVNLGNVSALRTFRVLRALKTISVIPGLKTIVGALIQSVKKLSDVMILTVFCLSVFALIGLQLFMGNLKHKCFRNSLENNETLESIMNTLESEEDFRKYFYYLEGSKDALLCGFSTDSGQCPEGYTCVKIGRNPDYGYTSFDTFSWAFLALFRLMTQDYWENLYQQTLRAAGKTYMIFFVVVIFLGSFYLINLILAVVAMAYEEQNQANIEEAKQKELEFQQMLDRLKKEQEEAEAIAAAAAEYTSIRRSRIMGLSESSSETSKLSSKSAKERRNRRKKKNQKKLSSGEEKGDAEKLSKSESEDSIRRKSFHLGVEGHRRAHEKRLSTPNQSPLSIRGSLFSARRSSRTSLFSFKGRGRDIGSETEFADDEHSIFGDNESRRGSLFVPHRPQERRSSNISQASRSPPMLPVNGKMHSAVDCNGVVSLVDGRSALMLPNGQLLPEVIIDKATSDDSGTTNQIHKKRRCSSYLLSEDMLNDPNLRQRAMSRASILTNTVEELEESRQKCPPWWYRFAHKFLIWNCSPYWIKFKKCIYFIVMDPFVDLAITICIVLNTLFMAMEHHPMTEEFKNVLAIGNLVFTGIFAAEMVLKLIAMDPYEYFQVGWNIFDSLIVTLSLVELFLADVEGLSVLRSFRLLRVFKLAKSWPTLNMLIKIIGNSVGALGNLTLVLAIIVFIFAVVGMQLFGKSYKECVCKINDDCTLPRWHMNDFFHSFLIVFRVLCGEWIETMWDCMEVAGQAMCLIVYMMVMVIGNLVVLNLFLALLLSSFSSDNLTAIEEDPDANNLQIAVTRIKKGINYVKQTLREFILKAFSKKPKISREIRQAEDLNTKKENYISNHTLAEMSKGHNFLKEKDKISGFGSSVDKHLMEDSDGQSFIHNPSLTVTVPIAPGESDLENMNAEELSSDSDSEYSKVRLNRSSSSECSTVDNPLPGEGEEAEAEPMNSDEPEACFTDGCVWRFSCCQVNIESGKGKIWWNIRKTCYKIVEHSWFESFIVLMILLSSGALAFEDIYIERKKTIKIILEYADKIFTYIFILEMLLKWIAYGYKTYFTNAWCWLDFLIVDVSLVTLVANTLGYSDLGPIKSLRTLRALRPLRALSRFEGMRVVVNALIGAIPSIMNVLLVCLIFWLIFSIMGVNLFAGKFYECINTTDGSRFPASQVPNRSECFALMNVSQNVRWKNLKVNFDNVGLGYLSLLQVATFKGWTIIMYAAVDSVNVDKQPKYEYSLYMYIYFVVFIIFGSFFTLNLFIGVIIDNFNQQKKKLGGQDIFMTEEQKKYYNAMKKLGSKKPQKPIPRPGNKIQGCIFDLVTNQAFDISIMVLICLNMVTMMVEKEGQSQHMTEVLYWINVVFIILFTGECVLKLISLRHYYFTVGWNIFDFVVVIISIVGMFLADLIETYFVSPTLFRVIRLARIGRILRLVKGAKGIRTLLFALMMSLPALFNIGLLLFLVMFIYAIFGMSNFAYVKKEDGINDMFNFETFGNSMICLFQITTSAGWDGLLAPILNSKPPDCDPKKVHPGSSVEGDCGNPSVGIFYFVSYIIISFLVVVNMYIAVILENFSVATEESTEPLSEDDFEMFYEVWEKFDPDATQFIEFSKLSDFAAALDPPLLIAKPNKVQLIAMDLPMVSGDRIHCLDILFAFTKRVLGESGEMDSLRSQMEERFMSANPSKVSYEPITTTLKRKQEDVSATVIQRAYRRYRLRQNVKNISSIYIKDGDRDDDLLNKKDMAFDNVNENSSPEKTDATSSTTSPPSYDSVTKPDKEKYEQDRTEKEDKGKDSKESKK
Procedure: as §1, §2, §3

In the case of `CCCCCc1cc(O)c(C/C=C(\C)CCC=C(C)C)c(O)c1C(=O)O` [CBGA, cannabigerolic acid], the “Effect in 6-Hz acute seizure model” value (6-Hz acute seizure model) is given as “proconvulsive effects”, the “Slope (Hill slope coefficient)” value ([1]; NaV1.1 concentration-response) is given as 2.6 ± 0.5 and the IC50 ([1]; NaV1.1 peak current, 0.1–100 µM, 5 min exposure) is given as 13.6 ± 1.1 µM. For the same compound, the “Slope (Hill slope coefficient)” value ([2]; NaV1.6 concentration-response) was 2.3 ± 0.6, the IC50 ([2]; NaV1.6 peak current, 0.1–100 µM, 5 min exposure) was 12 ± 1.2 µM and the “Slope (Hill slope coefficient)” value ([3]; NaV1.7 concentration-response) was 2.5 ± 0.4. It also gave an IC50 ([3]; NaV1.7 peak current, 0.1–100 µM, 5 min exposure) of 16.4 ± 1.1 µM.

From PMC9986306, “Beyond CBD: Inhibitory effects of lesser studied phytocannabinoids on human voltage-gated sodium channels” (Frontiers in Physiology, 2023)
